Data from patent US20180251431A1 (VERTEX PHARMACEUTICALS INCORPORATED, priority 2016, published 2018).
Like-named read-outs stand apart in the source and are kept apart here.

System: HEK293 cells
Assay: HEK293 VLCFA-LPC IC50 determination (13C-labeled C26:0 LPC by UHPLC/MS)
Type: cell-based, human
Conditions: average of one or more replicates, read-out: Average HEK293 IC50
Summary of the method: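 Suspension HEK293 cells (final 0.5 million/mL after mixing with equal volume) incubated 48 hours with compound plus 13C-acetate (1.0 mg/mL in added media), shaking at 37° C. Lipids extracted with hexane/isopropanol or methanol, C13:0 LPC standard. UHPLC/MS of 13C-labeled C26:0 LPC (638.500/104.100 m/z); IC50 by four-parameter fit.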

[1] = Homo sapiens, HEK293, HEK293 cells
[2] = Homo sapiens, HEK293, 48 h, 13C-labeled C26:0 LPC, 48 hours

SMILES	IC50 [1] [nM]	also measured
O=C(Cc1ccccc1)Nc1ccn(-c2cccc(F)c2)n1 [Compound 127, N-[1-(3-fluorophenyl)pyrazol-3-yl]-2-phenyl-acetamide]	810	–
COc1nccc(-n2ccc(NC(=O)C3(c4ccccc4F)CC3)n2)n1 [Compound 330, 1-(2-fluorophenyl)-N-[1-(2-methoxypyrimidin-4-yl)pyrazol-3-yl]cyclopropanecarboxamide]	–	IC50 [2]: 260 nM
O=C(Cc1ccccc1F)Nc1ccn(-c2ccncc2F)n1 [Compound 139, 2-(2-fluorophenyl)-N-[1-(3-fluoro-4-pyridyl)pyrazol-3-yl]acetamide]	400	–
O=C(Nc1ccn(-c2cccc(F)c2)n1)C1(c2ccccc2)CC1 [Compound 125, N-[1-(3-fluorophenyl)pyrazol-3-yl]-1-phenyl-cyclopropanecarboxamide]	71	–
Cn1ccc(-n2ccc(NC(=O)Cc3ccccc3F)n2)n1 [Compound 230, 2-(2-fluorophenyl)-N-[1-(1-methylpyrazol-3-yl)pyrazol-3-yl]acetamide]	> 5000	–
CC1(C)CC1(C(=O)Nc1ccn(-c2cncc(Cl)c2)n1)c1ncccc1F (stereo not drawn) [Compound 512, N-[1-(5-chloro-3-pyridyl)pyrazol-3-yl]-1-(3-fluoro-2-pyridyl)-2,2-dimethyl-cyclopropanecarboxamide]	1100	–
Cc1ccccc1C1(C(=O)Nc2ccn(-c3ccncc3)n2)CC1 [Compound 373, 1-(o-tolyl)-N-[1-(4-pyridyl)pyrazol-3-yl]cyclopropanecarboxamide]	–	IC50 [2]: 140 nM
O=C(Nc1ccn(-c2ccncc2)n1)C1(c2ccccc2)CC1(F)F (single isomer, unassigned) [Compound 434]	–	IC50 (13C-labeled C26:0 LPC, 48 hours): 340 nM
Cc1ccc(F)c(C2(C(=O)Nc3ccn(-c4ccnc(F)c4)n3)CC2)c1Cl [Compound 272, 1-(2-chloro-6-fluoro-3-methyl-phenyl)-N-[1-(2-fluoro-4-pyridyl)pyrazol-3-yl]cyclopropanecarboxamide]	460	–
O=C(Nc1ccn(-c2ccnc(F)c2)n1)C1(c2cc(F)cc(F)c2)CC1 [Compound 270, 1-(3,5-difluorophenyl)-N-[1-(2-fluoro-4-pyridyl)pyrazol-3-yl]cyclopropanecarboxamide]	280	–
O=C(Nc1ccn(-c2ccc(C(F)(F)F)cc2)n1)C1(c2ccccc2)CC1 [Compound 156, 1-phenyl-N-[1-[4-(trifluoromethyl)phenyl]pyrazol-3-yl]cyclopropanecarboxamide]	> 2000	–
O=C(Nc1ccn(-c2ccnc(F)c2)n1)C1(c2cccc(Cl)c2)CC1 [Compound 256, 1-(3-chlorophenyl)-N-[1-(2-fluoro-4-pyridyl)pyrazol-3-yl]cyclopropanecarboxamide]	300	–
Cc1cc(-n2ccc(NC(=O)C3(c4ccccc4F)CC3)n2)c(C)cn1 [Compound 350, N-[1-(2,5-dimethyl-4-pyridyl)pyrazol-3-yl]-1-(2-fluorophenyl)cyclopropanecarboxamide]	–	IC50 [2]: > 5000 nM
N#Cc1ccc(C2(C(=O)Nc3ccn(-c4ccnc(F)c4)n3)CC2)cc1 [Compound 226, 1-(4-cyanophenyl)-N-[1-(2-fluoro-4-pyridyl)pyrazol-3-yl]cyclopropanecarboxamide]	110	–
O=C(Cc1ccccc1)Nc1ccn(-c2ccc(C(F)(F)F)cc2)n1 [Compound 153, 2-phenyl-N-[1-[4-(trifluoromethyl)phenyl]pyrazol-3-yl]acetamide]	> 5000	–
O=C(Nc1ccn(-c2cc(F)cc(F)c2)n1)C1(c2ccccc2)CC1 [Compound 308, N-(1-(3,5-difluorophenyl)-1H-pyrazol-3-yl)-1-phenylcyclopropane-1-carboxamide]	140	–
O=C(Nc1ccn(-c2cnc(Cl)c(Cl)c2)n1)C1(c2ccccc2F)CC1 [Compound 379, N-[1-(5,6-dichloro-3-pyridyl)pyrazol-3-yl]-1-(2-fluorophenyl)cyclopropanecarboxamide]	–	IC50 [2]: 120 nM
Cc1cc(F)ccc1-n1ccc(NC(=O)C2(c3ncccc3F)CC2)n1 [Compound 450, N-(1-(4-fluoro-2-methylphenyl)-1H-pyrazol-3-yl)-1-(3-fluoropyridin-2-yl)cyclopropane-1-carboxamide]	> 5000	–
COc1nccc(-n2ccc(NC(=O)C3(c4ccccc4F)CC3)n2)c1C#N [Compound 336, N-[1-(3-cyano-2-methoxy-4-pyridyl)pyrazol-3-yl]-1-(2-fluorophenyl)cyclopropanecarboxamide]	–	IC50 [2]: > 5000 nM
COc1ncc(-n2ccc(NC(=O)C3(c4ncccc4F)CC3C)n2)cc1F (stereo not drawn) [Compound 509, N-[1-(5-fluoro-6-methoxy-3-pyridyl)pyrazol-3-yl]-1-(3-fluoro-2-pyridyl)-2-methyl-cyclopropanecarboxamide]	180	–
O=C(Nc1ccn(-c2cncs2)n1)C1(c2ccccc2F)CC1 [Compound 217, 1-(2-fluorophenyl)-N-(1-thiazol-5-ylpyrazol-3-yl)cyclopropanecarboxamide]	84	–

SMILES	IC50 [1] [nM]	also measured
O=C(Cc1nccs1)Nc1ccn(-c2ccnc(F)c2)n1 [Compound 307, N-[1-(2-fluoro-4-pyridyl)pyrazol-3-yl]-2-thiazol-2-yl-acetamide]	> 2000	–
CC1(C)CC1(C(=O)Nc1ccn(-c2ccccc2)n1)c1ccccc1 (stereo not drawn) [Compound 136, 2,2-dimethyl-1-phenyl-N-(1-phenylpyrazol-3-yl)cyclopropanecarboxamide]	940	–
O=C(Nc1ccn(-c2ccccc2)n1)C1(c2ccccc2)CC(F)(F)C1 [Compound 177, 3,3-difluoro-1-phenyl-N-(1-phenylpyrazol-3-yl)cyclobutanecarboxamide]	790	–
O=C(Cc1ccccc1)Nc1ccn(-c2ccnc(Cl)c2)n1 [Compound 83, N-(1-(2-chloropyridin-4-yl)-1H-pyrazol-3-yl)-2-phenylacetamide]	600	–
O=C(Nc1ccn(-c2ccccc2)n1)C1(c2ncccc2F)CC1 [Compound 281, 1-(3-fluoro-2-pyridyl)-N-(1-phenylpyrazol-3-yl)cyclopropanecarboxamide]	58	–
Cc1cc(-n2ccc(NC(=O)C3(c4ccccc4F)CC3)n2)nc(C)n1 [Compound 337, N-[1-(2,6-dimethylpyrimidin-4-yl)pyrazol-3-yl]-1-(2-fluorophenyl)cyclopropanecarboxamide]	–	IC50 [2]: > 5000 nM
Cc1cccc(C2(C(=O)Nc3ccn(-c4ccnc(F)c4)n3)CC2)c1 [Compound 245, N-[1-(2-fluoro-4-pyridyl)pyrazol-3-yl]-1-(m-tolyl)cyclopropanecarboxamide]	260	–
Cn1cnc(-n2ccc(NC(=O)C3(c4ccccc4F)CC3)n2)n1 [Compound 425, 1-(2-fluorophenyl)-N-[1-(1-methyl-1,2,4-triazol-3-yl)pyrazol-3-yl]cyclopropanecarboxamide]	> 5000	–
O=C(Cc1ccccc1F)Nc1ccn(-c2cccc(Cl)c2)n1 [Compound 130, N-[1-(3-chlorophenyl)pyrazol-3-yl]-2-(2-fluorophenyl)acetamide]	1500	–
Cc1nc(C)c(-n2ccc(NC(=O)C3(c4ccccc4F)CC3)n2)s1 [Compound 413, N-[1-(2,4-dimethylthiazol-5-yl)pyrazol-3-yl]-1-(2-fluorophenyl)cyclopropanecarboxamide]	> 5000	–
O=C(Nc1ccn(-c2ccnc(F)c2)n1)C1(c2c(F)cccc2Cl)CC1 [Compound 274, 1-(2-chloro-6-fluorophenyl)-N-(1-(2-fluoropyridin-4-yl)-1H-pyrazol-3-yl)cyclopropane-1-carboxamide]	37	–
O=C(Nc1ccn(-c2ccccc2)n1)C1(c2cc(F)ccc2F)CC1 [Compound 261, 1-(2,5-difluorophenyl)-N-(1-phenylpyrazol-3-yl)cyclopropanecarboxamide]	160	–
O=C(Nc1ccn(-c2ccnc(F)c2)n1)C1(c2ccncc2F)CC1 [Compound 313, 1-(3-fluoro-4-pyridyl)-N-[1-(2-fluoro-4-pyridyl)pyrazol-3-yl]cyclopropanecarboxamide]	1700	–
Cc1cnc(C2(C(=O)Nc3ccn(-c4cncc(F)c4)n3)CC2)c(F)c1 [Compound 497, 1-(3-fluoro-5-methyl-2-pyridyl)-N-[1-(5-fluoro-3-pyridyl)pyrazol-3-yl]cyclopropanecarboxamide]	2100	–
O=C(Cc1ccccc1F)Nc1ccn(-c2cnccn2)n1 [Compound 216, 2-(2-fluorophenyl)-N-(1-pyrazin-2-ylpyrazol-3-yl)acetamide]	> 5000	–
COc1cc(-n2ccc(NC(=O)C3(c4ccccc4F)CC3)n2)cnn1 [Compound 447, 1-(2-fluorophenyl)-N-[1-(6-methoxypyridazin-4-yl)pyrazol-3-yl]cyclopropanecarboxamide]	–	IC50 [2]: > 5000 nM
CC(C)Cc1ccc(C(C)C(=O)Nc2ccn(-c3ccccc3)n2)cc1 (stereo not drawn) [Compound 78, 2-(4-isobutylphenyl)-N-(1-phenylpyrazol-3-yl)propanamide]	> 5000	–
COc1cc(-n2ccc(NC(=O)C3(c4ncccc4F)CC34CC4)n2)ccn1 (stereo not drawn) [Compound 527, 2-(3-fluoro-2-pyridyl)-N-[1-(2-methoxy-4-pyridyl)pyrazol-3-yl]spiro[2.2]pentane-2-carboxamide]	> 2000	–
O=C(Cc1cccc(F)c1)Nc1ccn(-c2ccccc2)n1 [Compound 49, 2-(3-fluorophenyl)-N-(1-phenylpyrazol-3-yl)acetamide]	1900	–
COc1ncc(-n2ccc(NC(=O)C3(c4ccccc4F)CC3)n2)s1 [Compound 408, 1-(2-fluorophenyl)-N-[1-(2-methoxythiazol-5-yl)pyrazol-3-yl]cyclopropanecarboxamide]	1000	–
O=C(Nc1ccn(-c2ccc(Cl)cc2)n1)C1(c2ccccc2F)CC1 [Compound 131, N-[1-(4-chlorophenyl)pyrazol-3-yl]-1-(2-fluorophenyl)cyclopropanecarboxamide]	480	–
